Measured values published in the Kinase Knowledgebase extract (Sharma et al. 2016).

Columns and labels:
EGFR (human) = EGFR (human) (UniProt P00533); assay: Enzyme Assay
[1] = molecular target: EGFR (human), P00533 [L858R]; assay: Enzyme Assay
[2] = molecular target: EGFR (human), P00533 [L861Q]; assay: Enzyme Assay
[3] = molecular target: EGFR (human), P00533 [L858R]; assay: Cell-Based Assay; conditions: ba/f3

Sequence of EGFR (human), P00533 [L858R] (P00533 whole entry L858R, looked up): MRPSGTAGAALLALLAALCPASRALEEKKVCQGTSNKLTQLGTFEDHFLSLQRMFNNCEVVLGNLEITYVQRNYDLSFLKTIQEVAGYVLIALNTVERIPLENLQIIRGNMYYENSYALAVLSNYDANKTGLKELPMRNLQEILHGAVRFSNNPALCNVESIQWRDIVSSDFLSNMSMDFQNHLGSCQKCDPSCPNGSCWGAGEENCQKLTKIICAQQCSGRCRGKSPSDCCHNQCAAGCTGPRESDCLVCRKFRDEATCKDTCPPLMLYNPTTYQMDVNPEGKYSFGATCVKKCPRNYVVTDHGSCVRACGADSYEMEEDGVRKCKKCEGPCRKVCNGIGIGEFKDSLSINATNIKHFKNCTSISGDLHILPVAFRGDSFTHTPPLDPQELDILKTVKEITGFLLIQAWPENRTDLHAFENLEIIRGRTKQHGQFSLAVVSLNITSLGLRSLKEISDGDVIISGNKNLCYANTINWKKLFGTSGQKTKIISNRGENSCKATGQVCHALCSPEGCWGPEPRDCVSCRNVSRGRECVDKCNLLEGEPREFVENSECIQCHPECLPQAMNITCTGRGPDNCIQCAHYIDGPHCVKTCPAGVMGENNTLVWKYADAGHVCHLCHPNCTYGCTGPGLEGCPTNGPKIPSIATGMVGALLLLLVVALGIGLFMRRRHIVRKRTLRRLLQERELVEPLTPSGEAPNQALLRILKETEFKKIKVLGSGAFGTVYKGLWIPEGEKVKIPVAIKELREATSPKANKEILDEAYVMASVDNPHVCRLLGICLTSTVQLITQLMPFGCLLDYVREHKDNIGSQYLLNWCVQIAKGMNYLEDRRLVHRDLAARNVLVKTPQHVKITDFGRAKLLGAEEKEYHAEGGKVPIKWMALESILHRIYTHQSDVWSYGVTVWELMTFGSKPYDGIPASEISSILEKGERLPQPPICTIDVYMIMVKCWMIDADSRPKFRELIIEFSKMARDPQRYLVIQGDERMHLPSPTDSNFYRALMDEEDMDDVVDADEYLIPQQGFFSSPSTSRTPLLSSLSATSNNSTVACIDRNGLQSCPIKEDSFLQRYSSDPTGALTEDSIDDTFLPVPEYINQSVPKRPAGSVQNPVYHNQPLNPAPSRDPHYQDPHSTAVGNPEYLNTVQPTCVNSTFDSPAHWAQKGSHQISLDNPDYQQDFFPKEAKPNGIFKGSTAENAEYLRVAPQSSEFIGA
Sequence of EGFR (human) (P00533 whole entry, looked up): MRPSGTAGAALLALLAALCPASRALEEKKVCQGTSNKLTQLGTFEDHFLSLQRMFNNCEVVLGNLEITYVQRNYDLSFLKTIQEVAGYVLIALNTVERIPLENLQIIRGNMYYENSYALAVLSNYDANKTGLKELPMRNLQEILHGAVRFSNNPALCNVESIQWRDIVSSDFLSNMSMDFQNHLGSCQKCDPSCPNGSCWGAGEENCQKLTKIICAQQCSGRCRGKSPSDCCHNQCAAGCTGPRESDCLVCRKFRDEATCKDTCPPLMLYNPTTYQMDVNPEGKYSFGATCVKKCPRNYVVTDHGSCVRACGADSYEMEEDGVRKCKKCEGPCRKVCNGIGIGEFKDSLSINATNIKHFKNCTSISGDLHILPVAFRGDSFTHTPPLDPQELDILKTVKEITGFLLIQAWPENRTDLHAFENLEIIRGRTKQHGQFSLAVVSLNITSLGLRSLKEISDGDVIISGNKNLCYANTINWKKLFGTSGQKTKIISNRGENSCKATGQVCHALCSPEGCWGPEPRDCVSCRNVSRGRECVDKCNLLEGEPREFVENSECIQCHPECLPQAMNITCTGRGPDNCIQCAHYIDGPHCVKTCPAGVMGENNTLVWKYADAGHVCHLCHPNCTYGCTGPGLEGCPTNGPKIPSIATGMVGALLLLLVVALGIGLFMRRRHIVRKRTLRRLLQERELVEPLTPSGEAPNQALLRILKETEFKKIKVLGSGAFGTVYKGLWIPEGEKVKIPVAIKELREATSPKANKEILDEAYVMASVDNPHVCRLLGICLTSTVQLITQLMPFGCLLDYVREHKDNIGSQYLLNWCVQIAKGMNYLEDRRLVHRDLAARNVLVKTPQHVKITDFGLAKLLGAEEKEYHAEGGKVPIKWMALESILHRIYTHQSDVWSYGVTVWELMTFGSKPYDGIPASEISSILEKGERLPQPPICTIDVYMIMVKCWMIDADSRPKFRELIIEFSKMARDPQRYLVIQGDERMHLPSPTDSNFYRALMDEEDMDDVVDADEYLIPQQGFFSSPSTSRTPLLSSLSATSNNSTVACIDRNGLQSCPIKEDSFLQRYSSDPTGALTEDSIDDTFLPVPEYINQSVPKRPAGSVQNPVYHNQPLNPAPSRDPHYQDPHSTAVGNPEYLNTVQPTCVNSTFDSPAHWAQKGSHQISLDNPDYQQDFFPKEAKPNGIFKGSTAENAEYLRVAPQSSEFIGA
Sequence of EGFR (human), P00533 [L861Q] (P00533 whole entry L861Q, looked up): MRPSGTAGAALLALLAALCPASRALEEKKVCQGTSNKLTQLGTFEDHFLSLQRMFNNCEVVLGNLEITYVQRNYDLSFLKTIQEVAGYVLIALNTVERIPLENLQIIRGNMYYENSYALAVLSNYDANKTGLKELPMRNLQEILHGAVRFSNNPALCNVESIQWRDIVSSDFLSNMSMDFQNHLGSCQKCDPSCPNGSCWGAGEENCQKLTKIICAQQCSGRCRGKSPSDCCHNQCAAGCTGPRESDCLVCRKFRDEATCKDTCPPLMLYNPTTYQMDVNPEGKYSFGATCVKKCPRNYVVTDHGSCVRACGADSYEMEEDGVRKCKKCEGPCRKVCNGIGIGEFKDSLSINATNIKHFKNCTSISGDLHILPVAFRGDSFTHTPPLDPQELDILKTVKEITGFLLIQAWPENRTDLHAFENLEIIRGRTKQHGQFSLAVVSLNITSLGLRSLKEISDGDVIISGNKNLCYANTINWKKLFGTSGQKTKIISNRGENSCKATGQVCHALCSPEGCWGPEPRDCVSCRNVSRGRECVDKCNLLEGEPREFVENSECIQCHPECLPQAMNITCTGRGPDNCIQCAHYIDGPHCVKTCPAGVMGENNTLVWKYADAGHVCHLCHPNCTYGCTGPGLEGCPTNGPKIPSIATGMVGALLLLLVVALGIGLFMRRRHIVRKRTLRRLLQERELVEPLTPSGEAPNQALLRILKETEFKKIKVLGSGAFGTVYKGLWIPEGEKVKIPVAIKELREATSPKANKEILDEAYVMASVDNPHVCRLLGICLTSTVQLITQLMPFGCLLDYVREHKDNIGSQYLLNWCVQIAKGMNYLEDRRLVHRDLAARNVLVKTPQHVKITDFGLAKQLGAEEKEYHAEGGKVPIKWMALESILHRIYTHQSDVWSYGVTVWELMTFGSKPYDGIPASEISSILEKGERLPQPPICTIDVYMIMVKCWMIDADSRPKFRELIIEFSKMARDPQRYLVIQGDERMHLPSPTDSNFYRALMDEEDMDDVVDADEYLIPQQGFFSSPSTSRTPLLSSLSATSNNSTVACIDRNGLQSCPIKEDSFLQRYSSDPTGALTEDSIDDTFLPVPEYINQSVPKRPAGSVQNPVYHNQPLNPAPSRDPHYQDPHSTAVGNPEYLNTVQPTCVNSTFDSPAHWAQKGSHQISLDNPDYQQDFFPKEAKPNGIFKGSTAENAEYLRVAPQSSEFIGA

| Structure (SMILES) | IC50 (EGFR (human)) [nM] | IC50 [1] [nM] | IC50 [2] [nM] | IC50 [3] [nM] |
| --- | --- | --- | --- | --- |
| C[C@@H](Nc1ncnc2sc(-c3cccc(O)c3)cc12)c1ccccc1 | 45 |  |  |  |
| COc1cc(C=O)ccc1-c1cc2c(NCc3ccccc3)ncnc2s1 | 6.3 |  |  |  |
| COc1cc(C=O)ccc1-c1cc2c(Nc3ccccc3)ncnc2s1 | 20 |  |  |  |
| Cc1ccccc1-c1cc2c(N[C@H](C)c3ccccc3)ncnc2s1 | 153 |  |  |  |
| C[C@@H](Nc1ncnc2sc(-c3ccccc3O)cc12)c1ccccc1 | 35 |  |  |  |
| C[C@@H](Nc1ncnc2sc(-c3ccccc3)cc12)c1ccccc1 | 59 |  |  |  |
| COc1ccc(-c2cc3c(N[C@H](C)c4ccccc4)ncnc3s2)cc1 | 54 |  |  |  |
| COc1ccccc1-c1cc2c(N[C@H](C)c3ccccc3)ncnc2s1 | 6.7 | 7.71 | 9.06 |  |
| C[C@@H](Nc1ncnc2sc(-c3cccc(CO)c3)cc12)c1ccccc1 | 9.1 |  |  |  |
| COc1cccc(-c2cc3c(N[C@H](C)c4ccccc4)ncnc3s2)c1 | 37 |  |  |  |
| C[C@@H](Nc1ncnc2sc(-c3ccccc3CO)cc12)c1ccccc1 | 38 |  |  |  |
| Cc1cccc(-c2cc3c(N[C@H](C)c4ccccc4)ncnc3s2)c1 | 77 |  |  |  |
| CC[C@@H](Nc1ncnc2sc(-c3ccccc3O)cc12)c1ccccc1 | 33 |  |  |  |
| Cc1ccc(-c2cc3c(N[C@H](C)c4ccccc4)ncnc3s2)cc1 | 105 |  |  |  |
| Oc1ccccc1-c1cc2c(NCc3ccccc3)ncnc2s1 | 29 |  |  |  |
| COc1cc(CO)ccc1-c1cc2c(NCc3ccccc3)ncnc2s1 | 4.8 |  |  |  |
| COc1ccc(-c2cc3c(N[C@H](C)c4ccccc4)ncnc3s2)c(OC)c1 | 5 |  |  |  |
| COc1cc(F)ccc1-c1cc2c(N[C@H](C)c3ccccc3)ncnc2s1 | 6.3 |  |  |  |
| C[C@@H](Nc1ncnc2sc(-c3ccc(CO)cc3)cc12)c1ccccc1 | 6.6 |  |  |  |
| C[C@@H](Nc1ncnc2sc(-c3ccc(O)cc3)cc12)c1ccccc1 | 84 |  |  |  |

More lines, now with the values ahead:

| IC50 (EGFR (human)) [nM] | IC50 [1] [nM] | IC50 [2] [nM] | IC50 [3] [nM] | Structure (SMILES) |
| --- | --- | --- | --- | --- |
| 0.79 |  |  |  | COc1cccc(OC)c1-c1cc2c(N[C@H](CO)c3ccccc3)ncnc2s1 |
| 4.7 |  |  |  | COc1ccc(CO)cc1-c1cc2c(N[C@H](C)c3ccccc3)ncnc2s1 |
| 2 |  |  |  | OC[C@@H](Nc1ncnc2oc(-c3ccc(O)cc3)cc12)c1ccccc1 |
| 2.2 | 2.3 | 1.6 |  | OCc1ccc(-c2cc3c(N[C@H](CO)c4ccccc4)ncnc3s2)cc1 |
| 1.1 |  |  |  | COc1cccc(OC)c1-c1cc2c(N[C@H](C)c3ccccc3)ncnc2s1 |
| 2.1 |  |  |  | COc1cc(C=O)ccc1-c1cc2c(NCc3ccccc3)ncnc2[nH]1 |
| 1.8 |  |  |  | COC[C@@H](Nc1ncnc2[nH]c(-c3ccccc3)cc12)c1ccccc1 |
| 0.3 | 0.3 | 0.3 |  | COc1cc(CO)ccc1-c1cc2c(N[C@H](CO)c3ccccc3)ncnc2s1 |
| 0.4 | 0.4 | 0.2 | 172 | OCc1ccc(-c2cc3c(N[C@H](CO)c4ccccc4)ncnc3[nH]2)cc1 |
| 3.1 |  |  |  | COc1cc(CO)ccc1-c1cc2c(Nc3ccccc3)ncnc2s1 |
| 0.6 | 0.7 | 0.6 |  | COc1cc(CO)ccc1-c1cc2c(N[C@H](C)c3ccccc3)ncnc2s1 |
| 3.4 |  |  |  | OC[C@@H](Nc1ncnc2sc(-c3ccccc3O)cc12)c1ccccc1 |
| 1.6 |  |  |  | COc1c(CO)cccc1-c1cc2c(N[C@H](C)c3ccccc3)ncnc2s1 |
| 0.5 | 0.1 | 0.2 | 134 | COc1ccccc1-c1cc2c(N[C@H](CO)c3ccccc3)ncnc2[nH]1 |
| 0.9 | 1.3 | 1 |  | COc1ccccc1-c1cc2c(N[C@H](CO)c3ccccc3)ncnc2s1 |
| 0.7 | 1.3 | 1 | 127 | OC[C@@H](Nc1ncnc2[nH]c(-c3ccccc3)cc12)c1ccccc1 |
| 0.3 | 0.6 | 0.5 | 83 | COc1cc(CO)ccc1-c1cc2c(N[C@H](CO)c3ccc(F)cc3)ncnc2[nH]1 |
| 0.5 | 0.8 | 0.4 |  | COc1cc(CO)ccc1-c1cc2c(NCc3ccccc3)ncnc2[nH]1 |
| 2.6 |  |  |  | COc1ccc(C=O)cc1-c1cc2c(N[C@H](C)c3ccccc3)ncnc2s1 |
| 1 |  |  |  | COc1cc(F)ccc1-c1cc2c(N[C@H](CO)c3ccccc3)ncnc2[nH]1 |
| 0.8 | 0.9 | 0.8 |  | COc1cc(C=O)ccc1-c1cc2c(N[C@H](CO)c3ccccc3)ncnc2s1 |
| 0.2 | 0.4 | 0.2 | 99 | COc1cc(CO)ccc1-c1cc2c(N[C@H](C)c3ccccc3)ncnc2[nH]1 |
| 0.6 |  |  |  | COc1cc(C=O)ccc1-c1cc2c(N[C@H](CO)c3ccc(F)cc3)ncnc2[nH]1 |
| 0.5 |  |  |  | COc1cc(C=O)ccc1-c1cc2c(N[C@H](C)c3ccccc3)ncnc2[nH]1 |
| 2.7 |  |  |  | COc1ccc(-c2cc3c(N[C@H](CO)c4ccccc4)ncnc3o2)cc1 |
| 0.3 |  |  |  | COc1cc(C=O)ccc1-c1cc2c(N[C@H](CO)c3ccccc3)ncnc2[nH]1 |
| 3 | 4.3 | 3.9 |  | COc1cc(C=O)ccc1-c1cc2c(N[C@H](C)c3ccccc3)ncnc2s1 |
